Laboratory results: patent publication US20230330254A1 (Regeneron Pharmaceuticals, Inc., priority 2022, published 2023)
Read-outs that look alike come from different tables or passages of the source. Where a SMILES comes first, the peptide text is derived from it. [ ]: non-standard residue; d: D form. The star is where a group is joined. Bip(2'-Et,4'-O(CH2)4NH2) = CCc1cc(OCCCCN)ccc1-c1ccc(C[C@H](N)C(=O)O)cc1; Malonyl(2,2-Me2,histaminyl) = CC(C)(C(=O)NCCc1cnc[nH]1)C(=O)*; Nva(5-(3,5-Me2Ph)) = Cc1cc(C)cc(CCC[C@H](N)C(=O)O)c1; Ala(1H-tetrazol-5-yl) = N[C@@H](Cc1nnn[nH]1)C(=O)O; αMePhe(2-F) = C[C@](N)(Cc1ccccc1F)C(=O)O

Tests used:
[1] = Plasma stability of payloads and linker-payloads, human plasma; type: in vitro ADME
Procedure, shortened: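 Pooled plasma, pH adjusted to 7.4±0.1 where needed, spiked to 2 μM compound (duplicate) and incubated at 37 °C. At each time point, protein was precipitated with ACN/MeOH stop solution containing internal standards; remaining compound quantified in supernatant by LC-MS/MS.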

HEK293/CRE-Luc cells [2] = test: Luciferase reporter assay, HEK293/CRE-Luc cells without hGLP1R (Example 11); type: cell-based, human; settings: Table 11; Experiment A; no hGLP1R expression
Procedure, shortened: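 Counter-screen in HEK293 cells carrying CRE-driven firefly luciferase without hGLP1R; 3-fold serial dilutions of payloads or linker-payloads at 0.2% final DMSO, 4–6 h.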

human GLP1R [3] = biological target: T1, human GLP1R (Homo sapiens, UniProt P43220); test: Luciferase reporter assay, HEK293/CRE-Luc/hGLP1R cells (Example 11); type: cell-based; set-up: engineered to express full-length human GLP1R, cynomolgus GLP1R; expressed in transfected cells; host or cells: HEK293/CRE-Luc; settings: Table 11; Experiment A
HEK293/CRE-Luc cells [4] = test: Luciferase reporter assay, HEK293/CRE-Luc cells without GLP1R (Example 17); type: cell-based, human
Procedure, shortened: (§1)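 HEK293 cells carrying a CRE-driven firefly luciferase reporter were exposed to 3-fold serial dilutions of payloads or linker-payloads (12 points, 0.2% DMSO final) for 4–6 h, then luminescence was read. EC50 came from a four-parameter logistic fit; S/N is top RLU over untreated wells, and relative potency and S/N are referenced to M2361.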

human GLP1R [5] = biological target: T1, human GLP1R; test: Luciferase reporter assay, HEK293/CRE-Luc/hGLP1R (Example 17); type: cell-based; set-up: engineered to express full-length human GLP1R, cynomolgus GLP1R; expressed in transfected cells; host or cells: HEK293/CRE-Luc; settings: HEK293/CRE-Luc/hGLP1R; for EC50: payloads and linker-payloads, experiments A-E, M2361 repeated in each, read-out: EC50
Procedure, shortened: as §1

[6] = HEK293/CRE-Luc cells without hGLP1R, payloads and linker-payloads
[7] = HEK293/CRE-Luc cells without hGLP1R, payloads and linker-payloads, read-out: EC50
[8] = ATDCs and references (Table 27)
[9] = highest RLU / RLU of untreated wells
[10] = relative to M2361 of the same experiment

T1 sequence (P43220 24-463): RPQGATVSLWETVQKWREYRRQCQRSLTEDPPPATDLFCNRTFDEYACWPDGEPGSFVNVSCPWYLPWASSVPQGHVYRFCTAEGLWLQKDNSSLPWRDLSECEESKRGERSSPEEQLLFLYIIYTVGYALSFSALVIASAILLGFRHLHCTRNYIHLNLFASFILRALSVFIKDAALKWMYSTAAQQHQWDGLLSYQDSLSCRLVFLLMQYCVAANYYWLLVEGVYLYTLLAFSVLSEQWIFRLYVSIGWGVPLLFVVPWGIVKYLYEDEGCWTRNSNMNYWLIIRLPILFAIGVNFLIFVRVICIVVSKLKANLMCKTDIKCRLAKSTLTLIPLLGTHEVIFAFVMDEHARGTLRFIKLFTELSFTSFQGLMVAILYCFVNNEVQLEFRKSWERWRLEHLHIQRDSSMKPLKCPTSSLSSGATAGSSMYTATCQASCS

Row | Structure (SMILES) | EC50 (HEK293/CRE-Luc cells [2]) | HEK293/CRE-LUC S/N (HEK293/CRE-Luc cells [2]) | EC50 (human GLP1R [3]) | HEK293/CRE-LUC/hGLP1R Relative Potency (% P8 EC50) (human GLP1R [3]) | HEK293/CRE-LUC/hGLP1R S/N (human GLP1R [3]) | S/N (HEK293/CRE-Luc cells [4]; [6]) | EC50 (HEK293/CRE-Luc cells [4]; [7]) | S/N (human GLP1R [5]; [9]) | EC50 (human GLP1R [5]) | Relative Potency (% M2361 EC50) (human GLP1R [5]; [10]) | Relative Signal:Noise (% M2361) (human GLP1R [5]; [10]) | also measured
1 | CCc1cc(OCCCCn2cc(COCCOCCOCCOCCOCCOCCOCCOCCN)nn2)ccc1-c1ccc(C[C@H](NC(=O)[C@H](CC(=O)O)NC(=O)[C@H](CO)NC(=O)[C@@H](NC(=O)C(C)(Cc2ccccc2F)NC(=O)[C@@H](NC(=O)CNC(=O)[C@H](Cc2nn[nH]n2)NC(=O)C(C)(C)C(=O)NCCc2cnc[nH]2)[C@@H](C)O)[C@@H](C)O)C(=O)N[C@@H](CCCc2cc(C)cc(C)c2)C(N)=O)cc1 (stereo partly drawn) [LP11, NH2-PEG8-triazole-P8] | > 200000 pM | 1.3 | 16.1 pM | 33.1% | 74.5 | – | – | – | – | – | – | half-life at 2 µM ([1]; pooled plasma, pH 7.4, Table 5C, read-out: Plasma Stability Human T½): > 168 h; half-life at 2 µM ([1]; pooled plasma, pH 7.4, tested time C (3 days), 2 μM, 37° C., read-out: Human plasma stability assay T½ (converted)): > 173 h; HEK293/CRE-LUC/hGLP1R Relative Signal:Noise (% P8) (human GLP1R [3]): 113.3%
2 | CCc1cc(OCCCCn2cc(COCCOCCOCCOCCOCCOCCOCCOCCN)nn2)ccc1-c1ccc(C[C@H](NC(=O)[C@H](CC(=O)O)NC(=O)[C@H](CO)NC(=O)[C@@H](NC(=O)[C@](C)(Cc2ccccc2F)NC(=O)[C@@H](NC(=O)CNC(=O)[C@H](Cc2nn[nH]n2)NC(=O)C(C)(C)C(=O)NCCc2cnc[nH]2)[C@@H](C)O)[C@@H](C)O)C(=O)N[C@@H](CCCc2cc(C)cc(C)c2)C(N)=O)cc1 [M3190] | – | – | – | – | – | 1.3 | > 200000 pM | 74.5 | 16.1 pM | 33.1% | 113.3% | S/N (HEK293/CRE-Luc cells [4]; HEK293/CRE-Luc cells without hGLP1R, ATDCs and references (Table 27)): 1.3; EC50 (HEK293/CRE-Luc cells [4]; HEK293/CRE-Luc cells without hGLP1R, ATDCs and references (Table 27), read-out: EC50): > 20000 pM; EC50 (HEK293/CRE-Luc cells [4]; Table 28, reporter cells without GLP1R, read-out: HEK293/CRE-Luc EC50): > 200000 pM; EC50 (HEK293/CRE-Luc cells [4]; Table 29, reporter cells without GLP1R, read-out: HEK293/CRE-Luc EC50): > 30000 pM; Relative Potency (% M2361 EC50) (human GLP1R [5]; [8]): 44.0%; Relative Signal:Noise (% M2361) (human GLP1R [5]; [8]): 96.4%; S/N (human GLP1R [5]; [8]): 62.0
3 | CCc1cc(OCCCCN)ccc1-c1ccc(C[C@H](NC(=O)[C@H](CC(=O)O)NC(=O)[C@H](CO)NC(=O)[C@@H](NC(=O)[C@](C)(Cc2ccccc2F)NC(=O)[C@@H](NC(=O)CNC(=O)[C@H](Cc2nn[nH]n2)NC(=O)C(C)(C)C(=O)NCCc2cnc[nH]2)[C@@H](C)O)[C@@H](C)O)C(=O)N[C@@H](CCCc2cc(C)cc(C)c2)C(N)=O)cc1 [P9, (8S,14S,17S,20S,23S,26S)-8-((2H-tetrazol-5-yl)methyl)-26-(((S)-1-(((S)-1-amino-5-(3,5-dimethylphenyl)-1-oxopentan-2-yl)amino)-3-(4′-(4-aminobutoxy)-2′-ethyl-[1,1′-biphenyl]-4-yl)-1-oxopropan-2-yl)carbamoyl)-17-(2-fluorobenzyl)-14,20-bis((R)-1-hydroxyethyl)-23-(hydroxymethyl)-1-(1H-imidazol-5-yl)-5,5,17-trimethyl-4,6,9,12,15,18,21,24-octaoxo-3,7,10,13,16,19,22,25-octaazaoctacosan-28-oic acid] ({Malonyl(2,2-Me2,histaminyl)}-[Ala(1H-tetrazol-5-yl)]GT[αMePhe(2-F)]TSD[Bip(2'-Et,4'-O(CH2)4NH2)][Nva(5-(3,5-Me2Ph))]-NH2) | > 200000 pM | 1.3 | 3.97 pM | 133.8% | 75.2 | 1.3 | > 200000 pM | 75.2 | 3.97 pM | 133.8% | 114.3% | half-life at 2 µM ([1]; plasma, pH 7.4, tested time A (1 day per footnote), 2 μM, 37° C., read-out: Human plasma stability assay T½ (converted)): > 57.8 h
